Assay results published in patent US4820694A, “Modifications of 3-O-demethylmycinose in macrocin and lactenocin” (priority 1986, dated 1989).
≈ marks a conversion by molar mass, not a printed value. Read-outs that look alike come from different tables or passages of the source.

Experiments:
[1] = test system: Klebsiella pneumoniae X68; experiment: standard agar-dilution MIC assay; assay type: cell-based; settings: Klebsiella pneumoniae, X68; agar-dilution; read-out: MIC
Procedure: (§1) The MIC's in Table III were determined by standard agar-dilution assays. The MIC's in Table IV were obtained using conventional brothdilution microtiter tests.

[2] = test system: Staphylococcus aureus X400; experiment: standard agar-dilution MIC assay; assay type: cell-based; settings: Staphylococcus aureus, X400
Procedure: as §1

Escherichia coli EC14 = experiment: standard agar-dilution MIC assay; assay type: cell-based; settings: agar-dilution, read-out: MIC
Procedure: as §1

[3] = test system: Pseudomonas aeruginosa X239; experiment: standard agar-dilution MIC assay; assay type: cell-based; settings: Pseudomonas aeruginosa, X239; agar-dilution; read-out: MIC
Procedure: as §1

[4] = test system: Streptococcus pyogenes C203; experiment: standard agar-dilution MIC assay; assay type: cell-based; settings: Streptococcus pyogenes, C203
Procedure: as §1

[5] = test system: Streptococcus Group D 2041; experiment: standard agar-dilution MIC assay; assay type: cell-based; settings: GROUPD2041
Procedure: as §1

[6] = test system: Streptococcus Group D X66; experiment: standard agar-dilution MIC assay; assay type: cell-based; settings: read-out: MIC
Procedure: as §1

[7] = test system: Haemophilus influenzae C.L.; experiment: standard agar-dilution MIC assay; assay type: cell-based; settings: Haemophilus influenzae
Procedure: as §1

[8] = test system: Staphylococcus epidermidis 222; experiment: standard agar-dilution MIC assay; assay type: cell-based; settings: Staphylococcus epidermidis, 222
Procedure: as §1

[9] = test system: Staphylococcus epidermidis EPI1; experiment: standard agar-dilution MIC assay; assay type: cell-based; settings: Staphylococcus epidermidis, EPI1
Procedure: as §1

[10] = test system: Staphylococcus aureus X1.1; experiment: standard agar-dilution MIC assay; assay type: cell-based; settings: Staphylococcus aureus, X1.1
Procedure: as §1

[11] = test system: Staphylococcus aureus V41; experiment: standard agar-dilution MIC assay; assay type: cell-based; settings: Staphylococcus aureus, V41
Procedure: as §1

[12] = test system: Streptococcus pyogenes C203; experiment: protection of mice experimentally infected with S. pyogenes C203; assay type: in vivo; settings: mice, mg/kg × 2, doses given 1 and 4 hours postinfection, read-out: ED50
Outline: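 Activity is given as ED50, the mg/kg dose (×2) protecting half of the mice infected with S. pyogenes C203. Compound was dosed 1 and 4 h after infection.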

[13] = test system: Streptococcus pneumoniae Park I; experiment: microbe, parasite or virus in culture; assay type: cell-based; settings: Streptococcus pneumoniae
Procedure: as §1

[14] = test system: Staphylococcus aureus S13E; experiment: microbe, parasite or virus in culture; assay type: cell-based; settings: Staphylococcus aureus, S13E
Procedure: as §1

[15] = test system: Mycoplasma gallisepticum 15E; experiment: broth-dilution microtiter MIC test; assay type: cell-based; settings: Mycoplasmoides gallisepticum, 15E
Procedure: as §1

[16] = test system: Pasteurella hemolytica 22C; experiment: broth-dilution microtiter MIC test; assay type: cell-based; settings: Pasteurella, 22C
Procedure: as §1

[17] = test system: Mycoplasma hyopneumoniae S5972; experiment: broth-dilution microtiter MIC test; assay type: cell-based; settings: Mesomycoplasma hyopneumoniae, S5972
Procedure: as §1

[18] = test system: Mycoplasma gallisepticum 36H; experiment: broth-dilution microtiter MIC test; assay type: cell-based; settings: Mycoplasmoides gallisepticum, 36H
Procedure: as §1

[19] = test system: Mycoplasma gallisepticum 29C; experiment: broth-dilution microtiter MIC test; assay type: cell-based; settings: Mycoplasmoides gallisepticum, 29C
Procedure: as §1

[20] = test system: Pasteurella multocida 22A; experiment: broth-dilution microtiter MIC test; assay type: cell-based; settings: Pasteurella multocida, 22A
Procedure: as §1

[21] = test system: Pasteurella multocida 17E; experiment: broth-dilution microtiter MIC test; assay type: cell-based; settings: Pasteurella multocida, 17E
Procedure: as §1

[22] = test system: Pasteurella multocida 40G; experiment: broth-dilution microtiter MIC test; assay type: cell-based; settings: Pasteurella multocida, 40G
Procedure: as §1

[23] = test system: Bordetella bronchiseptica; experiment: broth-dilution microtiter MIC test; assay type: cell-based; settings: Bordetella bronchiseptica; broth-dilution microtiter; read-out: MIC
Procedure: as §1

Streptococcus sp. 19F = experiment: broth-dilution microtiter MIC test; assay type: cell-based; settings: Streptococcus, SP.19F
Procedure: as §1

[24] = test system: Pasteurella hemolytica 23C; experiment: broth-dilution microtiter MIC test; assay type: cell-based; settings: Pasteurella, 23C
Procedure: as §1

[25] = test system: Pasteurella hemolytica 41D; experiment: broth-dilution microtiter MIC test; assay type: cell-based; settings: Pasteurella, 41D
Procedure: as §1

[26] = test system: Staphylococcus aureus 19C; experiment: broth-dilution microtiter MIC test; assay type: cell-based; settings: Staphylococcus aureus, 19C
Procedure: as §1

[27] = test system: Pasteurella multocida 68C; experiment: broth-dilution microtiter MIC test; assay type: cell-based; settings: Pasteurella multocida, 68C
Procedure: as §1

[28] = test system: Pasteurella multocida 60A; experiment: broth-dilution microtiter MIC test; assay type: cell-based; settings: Pasteurella multocida, 60A
Procedure: as §1

[29] = test system: Haemophilus influenzae 76; experiment: standard agar-dilution MIC assay; assay type: cell-based; settings: Haemophilus influenzae, 76
Procedure: as §1

[30] = test system: Streptococcus Group D 9960; experiment: standard agar-dilution MIC assay; assay type: cell-based; settings: GROUPD9960, read-out: MIC
Procedure: as §1

Mycoplasma hyorhinis 29E = experiment: broth-dilution microtiter MIC test; assay type: cell-based; settings: Mycoplasma, 29E; broth-dilution microtiter; read-out: MIC
Procedure: as §1

Mycoplasma synoviae 40A = experiment: broth-dilution microtiter MIC test; assay type: cell-based; settings: Mycoplasmopsis synoviae, 40A
Procedure: as §1

[31] = agar-dilution, Ampicillin-sensitive strain, read-out: MIC
[32] = agar-dilution, Ampicillin-resistant strain, read-out: MIC
[33] = broth-dilution microtiter, read-out: MIC

`CCC1OC(=O)CC(O)C(C)C(OC2OC(C)C(O)C(N(C)C)C2O)C(CCOc2ccccc2)CC(C)C(=O)C=CC(C)=CC1COC1OC(C)C=CC1OC` (stereo not shown) [Compound 43, 3",4"-Di(dehydrodeoxy)-20-DH-20-O-phenyl-lactenocin] gave an MIC [1] greater than 128 µg/mL, an MIC ([2]; agar-dilution, Methicillin-resistant strain, read-out: MIC) of 0.25 µg/mL (≈ 0.312 µM) and an MIC (Escherichia coli EC14) greater than 128 µg/mL. For the same molecule, the MIC [3] was greater than 128 µg/mL, the MIC [4] was 0.25 µg/mL (≈ 0.312 µM) and the MIC [5] was 1 µg/mL (≈ 1.25 µM). The MIC [6] was 1 µg/mL (≈ 1.25 µM), the MIC [7] was 32 µg/mL (≈ 39.9 µM) and the MIC ([8]; agar-dilution, read-out: MIC) was 0.12 µg/mL (≈ 0.15 µM). For the same molecule, the MIC [9] was 0.25 µg/mL (≈ 0.312 µM), the MIC [10] was 0.25 µg/mL (≈ 0.312 µM) and the MIC ([11]; agar-dilution, Penicillin-resistant strain, read-out: MIC) was 0.25 µg/mL (≈ 0.312 µM). For the same molecule, the ED50 ([12]; C203, Oral) was 77.7 mg/kg, the ED50 ([12]; C203, sc, Subcutaneous) was greater than 10 mg/kg and the MIC [13] was 0.5 µg/mL (≈ 0.623 µM). It also gave an MIC [14] of 0.25 µg/mL (≈ 0.312 µM), an MIC [15] of 50 µg/mL (≈ 62.3 µM) and an MIC [16] of 50 µg/mL (≈ 62.3 µM). For the same molecule, the MIC [17] was 6.25 µg/mL (≈ 7.79 µM), the MIC [18] was 25 µg/mL (≈ 31.2 µM) and the MIC [19] was 0.39 µg/mL (≈ 0.486 µM). For the same molecule, the MIC [20] was 50 µg/mL (≈ 62.3 µM), the MIC [21] was 25 µg/mL (≈ 31.2 µM) and the MIC [22] was 25 µg/mL (≈ 31.2 µM). For the same molecule, the MIC [23] was greater than 50 µg/mL, the MIC (Streptococcus sp. 19F) was 0.78 µg/mL (≈ 0.973 µM) and the MIC [24] was 50 µg/mL (≈ 62.3 µM). For the same molecule, the MIC [25] was 50 µg/mL (≈ 62.3 µM), the MIC [26] was 1.56 µg/mL (≈ 1.95 µM) and the MIC [27] was 12.5 µg/mL (≈ 15.6 µM). The MIC [28] was 25 µg/mL (≈ 31.2 µM).
`CCC1OC(=O)CC(O)C(C)C(OC2OC(C)C(OC(C)=O)C(N(C)C)C2OC(C)=O)C(CCOc2ccccc2)CC(C)C(=O)C=CC(C)=CC1COC1OC(C)C=CC1OC` (stereo not shown) [Compound 42, 2',4'-Di-O-acetyl-3",4"-di(dehydrodeoxy)-20-DH-20-O-phenyl-lactenocin] showed an MIC [1] greater than 128 µg/mL, an MIC [2] of 0.5 µg/mL (≈ 0.564 µM) and an MIC (Escherichia coli EC14) greater than 128 µg/mL. For the same molecule, the MIC [3] was greater than 128 µg/mL, the MIC [4] was 1 µg/mL (≈ 1.13 µM) and the MIC [5] was 4 µg/mL (≈ 4.51 µM). The MIC [6] was 4 µg/mL (≈ 4.51 µM), the MIC [7, 31] was greater than 128 µg/mL and the MIC [8] was 0.5 µg/mL (≈ 0.564 µM). It also gave an MIC [9] of 1 µg/mL (≈ 1.13 µM), an MIC [10] of 1 µg/mL (≈ 1.13 µM) and an MIC [29, 32] greater than 128 µg/mL. The MIC [11] was 0.5 µg/mL (≈ 0.564 µM), the MIC [13] was 1 µg/mL (≈ 1.13 µM) and the MIC [14] was 4 µg/mL (≈ 4.51 µM).
`CCC1OC(=O)CC(O)C(C)C(OC2OC(C)C(O)C(N(C)C)C2O)C(CC=O)CC(C)C(=O)C=CC(C)=CC1COC1OC(C)C2OC(=O)OC2C1OC` (stereo not shown) [Compound 51, Lactenocin-3",4"-Carbonate Derivative] was tested, and the MIC [1] was greater than 128 µg/mL, the MIC [30] was 2 µg/mL (≈ 2.55 µM) and the MIC [2] was 2 µg/mL (≈ 2.55 µM). For the same molecule, the MIC (Escherichia coli EC14) was greater than 128 µg/mL, the MIC [3] was greater than 128 µg/mL and the MIC [4] was 0.25 µg/mL (≈ 0.319 µM). For the same molecule, the MIC [6] was 2 µg/mL (≈ 2.55 µM), the MIC [7] was 8 µg/mL (≈ 10.2 µM) and the MIC [8] was 0.5 µg/mL (≈ 0.638 µM). It also gave an MIC [9] of 1 µg/mL (≈ 1.28 µM), an MIC [10] of 1 µg/mL (≈ 1.28 µM) and an MIC [29] of 8 µg/mL (≈ 10.2 µM). It also gave an MIC [11] of 2 µg/mL (≈ 2.55 µM), an ED50 ([12]; C203, Oral) greater than 100 mg/kg and an ED50 ([12]; C203, sc, Subcutaneous) of 1.1 mg/kg. For the same molecule, the MIC [13] was 0.25 µg/mL (≈ 0.319 µM), the MIC [14] was 1 µg/mL (≈ 1.28 µM) and the MIC [15] was 50 µg/mL (≈ 63.8 µM). It also gave an MIC [16] of 12.5 µg/mL (≈ 15.9 µM), an MIC (Mycoplasma hyorhinis 29E) of 3.2 µg/mL (≈ 4.08 µM) and an MIC [17, 33] of 0.097 µg/mL (≈ 0.124 µM). For the same molecule, the MIC [18, 33] was greater than 50 µg/mL, the MIC [19] was 0.39 µg/mL (≈ 0.498 µM) and the MIC [20] was 6.25 µg/mL (≈ 7.97 µM). The MIC [21] was 6.25 µg/mL (≈ 7.97 µM), the MIC (Mycoplasma synoviae 40A) was 0.78 µg/mL (≈ 0.995 µM) and the MIC [22] was 3.12 µg/mL (≈ 3.98 µM). For the same molecule, the MIC [23] was greater than 50 µg/mL, the MIC (Streptococcus sp. 19F) was 3.12 µg/mL (≈ 3.98 µM) and the MIC [24] was 25 µg/mL (≈ 31.9 µM). It also gave an MIC [25] of 12.5 µg/mL (≈ 15.9 µM), an MIC [26] of 1.56 µg/mL (≈ 1.99 µM) and an MIC [27] of 12.5 µg/mL (≈ 15.9 µM). The MIC [28] was 6.25 µg/mL (≈ 7.97 µM).
With `CCC1OC(=O)CC(O)C(C)C(OC2OC(C)C(O)C(N(C)C)C2O)C(CCOc2ccccc2)CC(C)C(=O)C=CC(C)=CC1COC1OC(C)C2OC(=S)OC2C1OC` (stereo not shown) [Compound 59, 20-DH-20-O-Phenyl-lactenocin 3",4"-thiocarbonate] the MIC [1] was greater than 128 µg/mL, the MIC [2] was 1 µg/mL (≈ 1.14 µM) and the MIC (Escherichia coli EC14) was greater than 128 µg/mL. It also gave an MIC [3] greater than 128 µg/mL, an MIC [4] of 2 µg/mL (≈ 2.28 µM) and an MIC [5] of 32 µg/mL (≈ 36.4 µM). It also gave an MIC [6] of 16 µg/mL (≈ 18.2 µM), an MIC [7, 31] of 128 µg/mL (≈ 146 µM) and an MIC [8] of 0.5 µg/mL (≈ 0.569 µM). The MIC [9] was 2 µg/mL (≈ 2.28 µM), the MIC [10] was 1 µg/mL (≈ 1.14 µM) and the MIC [29, 32] was 128 µg/mL (≈ 146 µM). The MIC [11] was 1 µg/mL (≈ 1.14 µM), the ED50 ([12]; C203, Oral) was 54 mg/kg and the ED50 ([12]; C203, sc, Subcutaneous) was 10 mg/kg. For the same molecule, the MIC [13] was 2 µg/mL (≈ 2.28 µM) and the MIC [14] was 1 µg/mL (≈ 1.14 µM).
